In brackets after ≈: the same amount, converted by molar mass. Marks after values point to notes of the source that are not given here.
Experiments:
[1] = test system: planktonic growth of Staphylococcus
Method: An overnight culture of S. aureus (ATCC 29213) was diluted to 1×10^7 cells/mL in tryptic soy broth (TSB) supplemented with 10% human plasma (Innovative Research, Novi, Mich. USA) and added to the wells of an MBEC™-HTP Assay Biofilm Innoculator (Innovotech, Edmonton, AB, Canada). The plate was incubated overnight at 37° C. and shaken at 125 rpm. […] Control wells were without a COMPOUND OF Formula I. The treatment plate was incubated for 24 h at 37° C. after which the lid was removed, rinsed with PBS, and placed in a new 96-well plate containing TSB. The biofilm was removed from the assay lid into the recovery plate wells by sonication, a new plate cover was added, and the viability of the biofilm was determined after 24 h of incubation at 37° C. by reading the OD at 625 nm. Three independent experiments were conducted. Concentrations of interest were followed up with colony forming unit (CFU) recovery and scanning electron microscopy analysis. After conclusion of the MBEC assay, the minimum bactericidal concentration (MBC) was determined. The MBC is the lowest concentration of an antibacterial agent required to kill a particular bacterium. The peg lid from the MBEC assay was removed from the challenge plate and 20 μL of medium from each well of the challenge plate was removed and added to a new sterile 96-well plate filled with 180 μL TSB. […]

E. coli = assay: Minimum inhibitory and bactericidal concentration determination, Gram-negative control; assay type: cell-based, Escherichia coli
Method: (§1) The 96-well plate was organized as follows. Media (100 μl) were added to all wells.

[2] = test system: T-box controlled genes in MRSA; assay: RNA sequencing of MRSA grown in minimal media; assay type: cell-based, Staphylococcus aureus
B. subtilis 168 [3] = test system: B. subtilis 168
Method: Gentamicin on BHI agar was used as a control. In short, MRSA and B. subtilis were grown overnight in BHI, and 3-hour day cultures at the optical density of A620 of 0.1 were started for both organisms. The optical density after 3 hours of growth was measured; cultures were then pelleted and resuspended to give 10^11 CFU/ml by optical density. CFU of 10^11 per OD were plated in total; 100 μl of the cells were then plated on BHI agar containing either 128 μg/m1PKZ18 or 64 μg/m1PKZ18-22. Serial dilutions of the cells were plated on plain BHI agar in order to calculate the CFU/ml, which was calculated as the number of colonies found on the plates divided by the total number of bacteria plated. CFU means colony forming units, a measure of live bacteria.

[4] = test system: S. aureus N315 (MRSA isolate); assay: Minimum inhibitory and bactericidal concentration determination; assay type: cell-based, Staphylococcus aureus
Method: as §1

[5] = test system: ileS and tyrS T-boxes in WT MRSA
Method: Sample preparation of RNA and cDNA. RNA extraction and cDNA preparation were conducted as previously reported. In short, guanidine thiocyanate (0.5 M final concentration)-treated and pelleted bacterial cultures were resuspended in TRIzol, lysed by beat beating with zirconia beads, and centrifuged.
The solution was transferred to fresh tubes, and the RNA was extracted with chloroform. The RNA was then pelleted with 100% isopropanol and washed with ice-cold 70% ethanol, resuspended in Millipore water, DNase treated, and extracted with another isopropanol precipitation and ethanol wash. The resulting RNA was quantified using a NanoDrop 3300 (Thermo Fisher), and the quality was assessed by running 1 μg on a denaturing agarose gel. DNA contamination was tested for by PCR followed by agarose gel electrophoresis. cDNA was generated from 1 μg of high-quality RNA using the SuperScript III reverse transcriptase protocol for random primers (Thermo Fisher).
Either 2-fold or 10-fold dilutions of cDNA were used, and amplification was monitored with Evagreen dye. The expression was normalized to either 23S (B. subtilis 1A5) or 16S (MRSA) and reported as percentage read-through of the T-boxes tested for, calculated using the threshold cycle (2^−ΔΔCT) method.

B. subtilis 168 [6] = assay: Minimum inhibitory concentration determination; assay type: cell-based, Bacillus subtilis
Method: as §1

glyQS T-box = assay: qRT-PCR transcriptional read-through of T-box-regulated glyQS (confirmation of inhibition of T-box mechanism); assay type: cell-based, Bacillus subtilis 1A5; details: for T-Box targeting: confirmation of inhibition of T-box mechanism from qRT-PCR assay
From the text: Sample preparation of RNA and cDNA.

S. aureus N315 = assay: Checkerboard assay and FIC; assay type: cell-based, Staphylococcus aureus
Method: S. aureus N315 cultures were prepared identically to MIC determination in BHI media. The co-MICs were determined using the checkerboard method. In short, antibiotics to be tested with PKZ18 analogs were diluted 2-fold top to bottom (A to G rows) in a 96-well plate, PKZ18 analogs were diluted 2-fold right to left (columns 11-2 of the 96-well plate), and column 12 was used for vector, media, and growth controls. Each drug was therefore tested by itself and with every dilution of the other drug.
The synergistic and additive interactions were determined based on determined cutoffs using the equation
[formula] where MICAB is the lowest possible concentration of both drugs combined where there is no growth, and MICA and MICB are the MIC values of the individual drugs. For a synergistic drug interaction, the fractional inhibitory concentration (FIC) should be below 0.5, additive or indifferent effects are considered in an FIC range of 0.5 to <4, and an FIC value above 4 is considered antagonistic.

S. aureus N315 (MRSA) = assay: Antibiotic resistance frequency (fluctuation assay); assay type: cell-based, Staphylococcus aureus; details: MRSA plated on 64 μg/ml PKZ18-22 or 10 μg/ml gentamicin
From the text: Gentamicin on BHI agar was used as a control.

S. aureus biofilm = assay: MBEC-HTP biofilm model, combinations, Bliss independence model and CFU recovery; assay type: cell-based, Staphylococcus aureus
Method: This inherent resistance of bacteria in biofilms and the emergence of antibiotic-resistant bacteria has necessitated the drive to explore competent novel antimicrobial agents such as PKZ18 and the development of combinations of these novel antimicrobial agents with established antibiotics. We determined the minimum biofilm eradication concentration (MBEC) of compounds of Formula I in combination with vancomycin, gentamicin, rifampin, and tetracycline. Three independent experiments were conducted and required a checkerboard dilution to test various concentrations of the following combinations (compound of Formula I+each antibiotic) against S. aureus utilizing an established MBEC™-HTP biofilm model (Innovotech).
Briefly, an overnight culture of S. aureus was diluted to 1×10^5 cells/mL in cation-adjusted Mueller Hinton broth (MHB) supplemented with 1% human plasma and added to the wells of an MBEC plate. […] After incubation, the lid was removed and rinsed in PBS. Following treatment, a tetrazolium (2,3,5-triphenyl tetrazolium chloride, TTC) assay was performed to assess metabolic activity and viability. The lid was rinsed in PBS, transferred to a 96-well plate containing a 0.01% TTC solution in MHB, and incubated at 37° C. overnight. To dissolve the stain from the pegs, the lid was placed in a 96-well plate containing 96% ethanol and the OD of the wells was then read at 490 nm. Data was analyzed with the Bliss independence model using the Combenefit software.
After rinsing in PBS, designated pegs were snapped off the lid using sterile tweezers and placed in 1.5 mL Eppendorf tubes containing 200 μL PBS. Biofilm was disrupted from the pegs by sonicating the tubes for 15 min (Branson M8800H, Branson Ultrasonics, West Chester, Pa., USA), followed by vortexing for 10 s. Three independent serial dilutions were prepared for each sample and plated on tryptic soy agar (TSA) plates that were incubated overnight at 37° C. The plates were then imaged and colonies counted on a ColonyDoc-It™ Imaging station (UVP, Analytik Jena, Beverly, Mass., USA).

Q: For `CC(C)Cc1ccc(-c2csc(NC(=O)C3C4CCC(C4)C3C(=O)O)n2)cc1` (centres unmarked) [PKZ18-22], which “planktonic growth over a range of concentrations” value [1] is on record?
A: killing curve

Q: And the MIC E. coli (E. coli)?
A: > 256 µg/mL

Q: And the MBC E. coli (E. coli; value in parentheses)?
A: > 256 µg/mL

Q: What about the “cysteine and histidine T-boxes (cysE-cysS and hisS-aspS operons)” value ([2]; 4 and 8 μg/ml) of the same molecule?
A: inhibited only by the higher concentration

Q: And the “read-through of alaS” value ([2]; 4 and 8 μg/ml)?
A: not inhibited

Q: What about the “read-through reduction of tyrS” value ([2]; 4 and 8 μg/ml) of the same molecule?
A: not statistically significant

Q: And the “overall change in gene expression” value ([2]; 4 and 8 μg/ml vs untreated)?
A: large overall change in expression

Q: What about the “genes under T-box control (out of the 12) with reduced expression” value ([2]; 4 or 8 μg/ml PKZ18-22) of the same molecule?
A: 8

Q: What about the “read-throughs of glyS, ileS, leuS, pheST, serS, thrS and valS” value ([2]; both concentrations (4 and 8 μg/ml), normalized to untreated) of the same molecule?
A: reduction

Q: What about the “relative read-through of other riboswitch-controlled genes” value ([2]; non-T-box 5′UTR regulated genes) of the same molecule?
A: did not significantly change

Q: And the resistant colonies (B. subtilis 168 [3])?
A: did not generate resistant colonies

Q: And the bactericidal effect ([4]; MRSA)?
A: bactericidal

Q: What about the “fold reduction in MIC in minimal compared to rich media” value ([4]; MRSA strain S. aureus N315) of the same molecule?
A: 4 fold

Q: What about the “MIC against S. aureus in minimal media” value ([4]; S. aureus N315, minimal media) of the same molecule?
A: 8^b μg/ml

Q: And the “MIC against S. aureus in rich media” value ([4]; S. aureus N315, rich media)?
A: 32^b μg/ml

Q: What about the “MIC S. aureus N315” value ([4]; Table 2) of the same molecule?
A: 32 µg/mL (≈ 80.3 µM)

Q: And the “MBC S. aureus N315” value ([4]; Table 2, value in parentheses)?
A: 64 µg/mL (≈ 161 µM)

Q: What about the “relative read-through of ileS and tyrS” value ([5]; MRSA in minimal media, 4 μg/ml) of the same molecule?
A: decrease

Q: And the “read-through of ileS and tyrS” value ([5]; MRSA in rich media, 8 μg/ml)?
A: reduced

Q: And the bactericidal effect (B. subtilis 168 [6]; B. subtilis 168)?
A: bactericidal

Q: What about the “MIC against B. subtilis 168 in minimal media” value (B. subtilis 168 [6]; minimal media) of the same molecule?
A: 4 µg/mL (≈ 10 µM)

Q: What about the “MIC against B. subtilis 168 in rich media” value (B. subtilis 168 [6]; rich media) of the same molecule?
A: 16 µg/mL (≈ 40.1 µM)

Q: And the “inhibition of read-through compared with PKZ18” value (glyQS T-box; 4 μg/ml of each drug, side by side in same biological replicate)?
A: significantly better than PKZ18

Q: And the “T-box-controlled expression of glyQS (termination of read-through)” value (glyQS T-box; B. subtilis 1A5, increasing concentrations, minimal media)?
A: inhibited

Q: What about the T-Box targeting (glyQS T-box; Table 1) of the same molecule?
A: Yes

Q: And the T-Box targeting (glyQS T-box; Table 2)?
A: Yes

Q: And the “FIC of PKZ18-22 and gentamicin” value (S. aureus N315; both rich and minimal media, WT MRSA)?
A: 0.38

Q: What about the “fold decrease in the MIC of PKZ18-22” value (S. aureus N315; in combination with gentamicin) of the same molecule?
A: 4 fold

Q: What about the “fractional inhibitory concentration FIC” value (S. aureus N315; with ampicillin) of the same molecule?
A: 0.75

Q: And the “fractional inhibitory concentration FIC” value (S. aureus N315; with chloramphenicol)?
A: 0.75

Q: What about the “fractional inhibitory concentration FIC” value (S. aureus N315; with gentamicin) of the same molecule?
A: 0.38

Q: And the “fractional inhibitory concentration FIC” value (S. aureus N315; with kanamycin A)?
A: 0.38

Q: What about the “fractional inhibitory concentration FIC” value (S. aureus N315; with neomycin B) of the same molecule?
A: 0.38

Q: And the “fractional inhibitory concentration FIC” value (S. aureus N315; with streptomycin)?
A: 0.75

Q: And the resistance frequency (S. aureus N315 (MRSA))?
A: 5.6×10^−12

Q: And the “highest synergy score (Bliss)” value (S. aureus biofilm; PKZ18-22 25 μg/mL and gentamicin 16 μg/mL and 64 μg/mL)?
A: 87

Q: And the “log reduction in CFU/mL in biofilm growth” value (S. aureus biofilm; PKZ18-22 25 μg/mL and gentamicin 64 μg/mL, 24 h exposure)?
A: ~5 log

Q: What about the “biofilm CFU reduction with rifampin combination” value (S. aureus biofilm; PKZ18-22 25 μg/mL and rifampin 0.001 or 0.005 μg/mL, single dose 24 h) of the same molecule?
A: significantly greater reduction when compared to each treatment alone

Q: What about the “maximal synergy score (Bliss)” value (S. aureus biofilm; PKZ18-22 25 μg/mL and vancomycin 4 μg/mL) of the same molecule?
A: 43

Q: And the cell reduction (S. aureus biofilm; combination of gentamicin/PKZ18-22, single dose 24 h challenge)?
A: > 99.9%

Q: What about the synergy with minocycline (S. aureus biofilm; single dose 24 h challenge) of the same molecule?
A: not synergistic

From patent US11617741B1, “Method for inhibiting growth of bacteria” (priority 2021, dated 2023)
